Data on nine molecules can be found in patent EP1674457B1, “Derivatives of squaric acid with anti-proliferative activity” (GPC Biotech AG, priority 2004, dated 2006).

The inhibition is the share of the control response that was lost under treatment. In general, IC50 refers to the concentration at which inhibition is half-maximal. Low values mean greater potency in that assay, high ones weaker potency in that assay.

The test system of experiment [1] is SW-620. Nature of the experiment: SRB assay, inhibition of tumor cell growth at 1 µM (Example 61). It is filed as cell-based. The settings on record: Homo sapiens, 48 hours. Here is the method:
(§1) 3,000-15,000 cells/well were exposed to the test compounds at a concentration of 1 µM for 48 hours, and cytotoxicty was measured using the SRB assay according to Shekan et al (J Natl Cancer Inst (1990) 82, 1107-112). Briefly, cells were plated in 96 well dishes 24 hours prior to compound addition. The assay was terminated with the addition of cold TCA to a final concentration of 10% and the plates were incubated for one hour at 4°C. The plates were then washed 5 times with water and 100µl of a Sulforhodamine B solution (4%) was added to each well. The plate was then incubated for 10 minutes at room temperature before removal of unbound dye by washing with 1% acetic acid. The bound dye was solubilized with 10 mM Trizma base and the absorbance read at OD570. Inhibitory activity of the compounds was calculated as % inhibition compared to cells treated with the solvent (DMSO). Table 2 represents the growth inhibitory activity of certain compunds of the invention across a number of tumor cell lines.
(The SRB assay estimates cell density from bound dye.)

Experiment [2] concerns PC-3. The experiment is described as above. It is filed as cell-based. The settings on record: Homo sapiens, 48 hours. As to the method: as §1
Experiment [3] has as its system MCF7. The description is as above. As to conditions: Homo sapiens, 48 hours. It is filed as cell-based. Here is the method: as §1
Experiment [4] concerns HCT-116. The experiment is described as above. The class given is cell-based. The settings on record: Homo sapiens, 48 hours. Here is the method: as §1
Another experiment has as its system A-549. The description is as above. It is filed as cell-based. The settings on record: Homo sapiens, A549, 48 hours. As to the method: as §1
In experiment [5] the test system is A2780. The experiment is described as above. It is filed as cell-based, Human. The settings on record: Homo sapiens, 48 hours. As to the method: as §1
The subject of experiment [6] is SW-620. The experiment can be described thus: IC50 determination by SRB assay (Example 62). The class given is cell-based. The settings on record: Homo sapiens. As to the method: as §1
(§2) The assay was performed similar to example 61. However, test compounds were added at various concentrations, such as from 0.001 to about 0.1 µM, from 0.1 to about 10 µM, or from 1 to about 10 µM, as the need may be, in order to estimate the IC50 values. IC50 values were determined by plotting the percentage inhibitory activity for each concentration, fitting a curve using appropriate software and estimating the concentration at which 50% inhibition of growth would occur.

For experiment [7], the system named is A2780. Nature of the experiment: IC50 determination by SRB assay (Example 62). It is filed as cell-based. As to conditions: Homo sapiens. Here is the method:
as §1, §2

Experiment [8] deals with MCF7. Nature of the experiment: IC50 determination by SRB assay (Example 62). It is filed as cell-based. As to conditions: Homo sapiens. As to the method:
as §1, §2

For experiment [9], the system named is HCT-116. The experiment can be described thus: IC50 determination by SRB assay (Example 62). The settings on record: Homo sapiens, HCT-116; HCY-116. It is filed as cell-based. As to the method: as §1, §2
Experiment [10] has as its system PC-3. The experiment can be described thus: IC50 determination by SRB assay (Example 62). The settings on record: Homo sapiens. The class given is cell-based. Here is the method: as §1, §2

The structures appear in SMILES notation. Bounds are passed on as bounds.

On to `O=c1c(NCCCCCOc2ccc(Cl)cc2)c(Nc2cccnc2)c1=O` [SQ-2], for which the inhibition at 1 µM with SW-620 [1] was greater than 50%; with PC-3 [2], greater than 50%; in the experiment on MCF7 [3], greater than 80%; with HCT-116 [4] it was greater than 80%; with A-549, greater than 50%; with A2780 [5] it was greater than 80%. Moreover, the IC50 in the experiment on SW-620 [6] was less than 10000 nM; in the experiment with A2780 [7] it was less than 20 nM; in the experiment on MCF7 [8], less than 20 nM; in the experiment on HCT-116 [9] it was less than 20 nM.
As to `O=c1c(NCCCCCCOc2cccnc2)c(Nc2ccncc2)c1=O` [SQ-16, 3-(Pyridin-4-ylamino)-4-[6-(pyridin-3-yloxy)-hexylamino]-cyclobut-3-ene-1,2-dione], the inhibition at 1 µM with SW-620 [1] is greater than 20%; in the experiment with PC-3 [2], greater than 20%; with MCF7 [3], greater than 5%; in the experiment with HCT-116 [4], greater than 80%; in the experiment on A-549 it was greater than 20%; with A2780 [5] it was greater than 80%. Also, the IC50 with PC-3 [10] was less than 500 nM; in the experiment on A2780 [7], less than 100 nM; with HCT-116 [9], less than 500 nM.
As for `O=c1c(NCc2ccc(COc3ccc(Cl)cc3)cc2)c(Nc2cccnc2)c1=O` [SQ-32, 3-[4-(4-Chlorophenoxymethyl)-benzylamino]-4-(pyridin-3-yl-amino)-cyclobut-3-ene-1,2-dione], the inhibition at 1 µM was greater than 5% with SW-620 [1]; greater than 50% with PC-3 [2]; greater than 20% in the experiment with MCF7 [3]; greater than 80% in the experiment with HCT-116 [4]; greater than 20% in the experiment with A-549; greater than 80% with A2780 [5]. The IC50 is greater than 10000 nM with SW-620 [6], less than 100 nM in the experiment on A2780 [7], greater than 10000 nM in the experiment with MCF7 [8] and less than 100 nM in the experiment with HCT-116 [9].
As to `O=c1c(NCCC2CCN(Cc3ccccc3)CC2)c(Nc2cccnc2)c1=O` [SQ-37, 3-[2-(1-Benzylpiperidin-4-yl)ethylamino]-4-(pyridin-3-yl-amino)-cyclobut-3-ene-1,2-dione], the IC50 was less than 10000 nM in the experiment on PC-3 [10], less than 2000 nM in the experiment on A2780 [7] and less than 2000 nM in the experiment on HCT-116 [9].
Turning to `O=c1c(NCc2cccc(COc3ccc(Cl)cc3)c2)c(Nc2cccnc2)c1=O` [SQ-35, 3-[3-(4-Chlorophenoxymethyl)-benzylamino]-4-(pyridin-3-yl-amino)-cyclobut-3-ene-1,2-dione], the values for the IC50 in the experiment on PC-3 [10], in the experiment with A2780 [7] and in the experiment with HCT-116 [9] were greater than 10000 nM, less than 10000 nM and less than 10000 nM, respectively.
For `O=c1c(NCCCCCCOc2ccc(Cl)cc2)c(Nc2cccnc2)c1=O` [SQ-1B], the inhibition at 1 µM is greater than 20% in the experiment with SW-620 [1]; greater than 50% with PC-3 [2]; greater than 80% in the experiment on MCF7 [3]; greater than 80% in the experiment on HCT-116 [4]; greater than 20% with A-549; greater than 80% with A2780 [5]. In addition, the IC50 in the experiment on SW-620 [6] was less than 2000 nM; in the experiment on A2780 [7], less than 100 nM; with MCF7 [8], less than 10 nM; in the experiment on HCT-116 [9] it was less than 20 nM.
As to `O=c1c(NCCC2CCN(Cc3ccccc3)CC2)c(Nc2ccncc2)c1=O` [SQ-38, 3-[2-(1-Benzylpiperidin-4-yl)-ethylamino]-4-(pyridin4-yl-amino)-cyclobut-3-ene-1,2-dione], the IC50 with PC-3 [10], with A2780 [7] and in the experiment with HCT-116 [9] was less than 10000 nM in each case.
As for `O=c1c(NCCc2ccc(Oc3ccc(Cl)cc3)cc2)c(Nc2ccncc2)c1=O` [SQ-20, 3-{2-[4-(4-Chlorophenoxy)-phenyl]-ethylamino}-4-(pyridin-4-yl-amino)-cyclobut-3-ene-1,2-dione], the results for the IC50 with PC-3 [10], in the experiment on A2780 [7] and in the experiment with HCT-116 [9] were less than 500 nM, less than 20 nM and less than 100 nM, respectively.
In the same order, the values of `O=c1c(NCCc2ccc(Oc3ccc(Cl)cc3)cc2)c(Nc2cccnc2)c1=O` [SQ-6, 3-{2-[4-(4-Chlorophenoxy)-phenyl]-ethylamino}-4-(pyridin-3-yl-amino)-cyclobut-3-ene-1,2-dione] are less than 500 nM, less than 20 nM and less than 100 nM.
